Reference: patent US20260217701A1, “SELECTIVE BET INHIBITORS AND USES THEREOF” (Tay Therapeutics Limited, priority 2022, published 2026)
Where “and” joins values, the source holds several entries; their conditions need not be identical. Identical values can stand only once.

System: collagen-induced arthritis
Assay: Collagen-induced arthritis (CIA) model: clinical scores and paw volume
Assay type: in vivo, Lewis rats
Settings: for Overall Clinical Score: individual animals 1-8; for Animal paw volume / Animal paw volume percent change (%): individual animals
[1] = Day 15, CIA + Compound A 3 mg/kg
[2] = Day 15, CIA + Compound A 10 mg/kg
[3] = Day 18, L paw, group 5 CIA + Compound A 1 mg/kg
[4] = Day 18, L paw, group 6 CIA + Compound A 3 mg/kg
[5] = Day 18, L paw, group 7 CIA + Compound A 10 mg/kg
[6] = Day 18, R paw, group 5 CIA + Compound A 1 mg/kg
[7] = Day 18, R paw, group 6 CIA + Compound A 3 mg/kg
[8] = Day 18, R paw, group 7 CIA + Compound A 10 mg/kg
[9] = Day 18, CIA + Compound A 1 mg/kg
[10] = Day 18, CIA + Compound A 3 mg/kg
[11] = Day 18, CIA + Compound A 10 mg/kg
[12] = Day 19, L paw, group 5 CIA + Compound A 1 mg/kg
[13] = Day 19, L paw, group 6 CIA + Compound A 3 mg/kg
[14] = Day 19, L paw, group 7 CIA + Compound A 10 mg/kg
[15] = Day 19, R paw, group 5 CIA + Compound A 1 mg/kg
[16] = Day 19, R paw, group 6 CIA + Compound A 3 mg/kg
[17] = Day 19, R paw, group 7 CIA + Compound A 10 mg/kg
[18] = Day 19, CIA + Compound A 1 mg/kg
[19] = Day 19, CIA + Compound A 3 mg/kg
[20] = Day 21, L paw, group 5 CIA + Compound A 1 mg/kg
[21] = Day 21, L paw, group 6 CIA + Compound A 3 mg/kg
[22] = Day 21, L paw, group 7 CIA + Compound A 10 mg/kg
[23] = Day 21, R paw, group 5 CIA + Compound A 1 mg/kg

Which results are given for `Cn1cc(-c2ccccc2)c(-c2cn(C)c(=O)c3[nH]c(-c4cnn(C(F)(F)F)c4)cc23)cc1=O` [Compound A, 6-methyl-4-(1-methyl-2-oxo-5-phenyl-1,2-dihydropyridin-4-yl)-2-(1-(trifluoromethyl)-1H-pyrazol-4-yl)-1,6-dihydro-7H-pyrrolo[2,3-c]pyridin-7-one]?
Average detailed clinical score, score [1]: 1; Average overall clinical score [1]: 1; Overall Clinical Score (Day 15, CIA + Compound A 3 mg/kg, 3 mg/kg): 0 (2×) and 1; Average detailed clinical score, left forelimb [2]: 0; Average detailed clinical score, left hind limb [2]: 0.75; Average detailed clinical score, right forelimb [2]: 0; Average detailed clinical score, right hind limb [2]: 0.5; Average detailed clinical score, score [2]: 1.25; Average overall clinical score [2]: 1; Animal paw volume (Day 15, L paw, Group 5 (CIA + Compound A 1 mg/kg), 1 mg/kg): 1.45 mL and 1.84 mL and 1.77 mL and 1.64 mL and 1.48 mL and 1.66 mL and 1.92 mL; Animal paw volume (Day 15, L paw, Group 6 (CIA + Compound A 3 mg/kg), 3 mg/kg): 1.49 mL (2×) and 1.59 mL and 1.48 mL and 1.54 mL and 1.68 mL; Animal paw volume (Day 15, R paw, Group 5 (CIA + Compound A 1 mg/kg), 1 mg/kg): 1.42 mL and 1.81 mL and 1.56 mL and 1.65 mL and 1.50 mL and 1.72 mL and 1.59 mL; Animal paw volume (Day 15, R paw, Group 6 (CIA + Compound A 3 mg/kg), 3 mg/kg): 1.39 mL and 1.41 mL and 1.46 mL and 1.42 mL and 1.75 mL and 1.57 mL; Average animal paw volume [3]: 1.98 mL; Average animal paw volume percent change (%) [3]: 49.46%; Average animal paw volume [4]: 1.64 mL; Average animal paw volume percent change (%) [4]: 24.36%; Average animal paw volume [5]: 1.61 mL; Average animal paw volume percent change (%) [5]: 22.68%; Animal paw volume percent change (%) (Day 18, L paw, group 5 CIA + Compound A 1 mg/kg, 1 mg/kg): 55.17% and 87.60% and 51.66% and 66.42% and 24.72% and 52.08% and 52.83%; Animal paw volume percent change (%) (Day 18, L paw, group 6 CIA + Compound A 3 mg/kg, 3 mg/kg): 29.66% and 54.47% and 6.08% and 10.26% and 18.39% and 23.97%; Average animal paw volume [6]: 1.91 mL; Average animal paw volume percent change (%) [6]: 44.06%; Average animal paw volume [7]: 1.78 mL; Average animal paw volume percent change (%) [7]: 35.37%; Average animal paw volume [8]: 1.76 mL; Average animal paw volume percent change (%) [8]: 34.04%; Animal paw volume percent change (%) (Day 18, R paw, group 5 CIA + Compound A 1 mg/kg, 1 mg/kg): 59.00% and 89.96% and 33.45% and 53.58% and 18.45% and 55.13% and 36.98%; Animal paw volume percent change (%) (Day 18, R paw, group 6 CIA + Compound A 3 mg/kg, 3 mg/kg): 61.13% and 22.57% and 44.15% and 30.48% and 50.58% and 23.22%; Average detailed clinical score, left forelimb [9]: 0.50; Average detailed clinical score, left hind limb [9]: 3.88; Average detailed clinical score, right forelimb [9]: 0.50; Average detailed clinical score, right hind limb [9]: 3.88; Average detailed clinical score, score [9]: 8.75; Average overall clinical score [9]: 4; Overall Clinical Score (Day 18, CIA + Compound A 1 mg/kg, 1 mg/kg): 0 and 5 (3×) and 7 and 6 and 2 and 4; Average detailed clinical score, left forelimb [10]: 0.00; Average detailed clinical score, left hind limb [10]: 2.50; Average detailed clinical score, right forelimb [10]: 0.88; Average detailed clinical score, right hind limb [10]: 2.25; Average detailed clinical score, score [10]: 5.63; Average overall clinical score [10]: 3; Overall Clinical Score (Day 18, CIA + Compound A 3 mg/kg, 3 mg/kg): 4 and 3 and 2; Average detailed clinical score, left forelimb [11]: 0.00; Average detailed clinical score, left hind limb [11]: 1.13; Average detailed clinical score, right forelimb [11]: 0.00; Average overall clinical score [11]: 3; Animal paw volume (Day 18, L paw, Group 5 (CIA + Compound A 1 mg/kg), 1 mg/kg): 2.03 mL (2×) and 2.42 mL and 2.06 mL and 2.21 mL and 1.67 mL and 2.02 mL; Animal paw volume (Day 18, L paw, Group 6 (CIA + Compound A 3 mg/kg), 3 mg/kg): 1.71 mL and 1.99 mL and 1.40 mL and 1.51 mL and 1.55 mL and 1.66 mL; Animal paw volume (Day 18, R paw, Group 5 (CIA + Compound A 1 mg/kg), 1 mg/kg): 2.08 mL and 2.46 mL and 1.84 mL and 2.04 mL (2×) and 1.61 mL and 1.82 mL; Animal paw volume (Day 18, R paw, Group 6 (CIA + Compound A 3 mg/kg), 3 mg/kg): 2.14 mL and 1.58 mL and 1.91 mL and 1.76 mL and 1.95 mL and 1.65 mL; Average animal paw volume [12]: 1.97 mL; Average animal paw volume percent change (%) [12]: 49.19%; Average animal paw volume [13]: 1.70 mL; Average animal paw volume percent change (%) [13]: 29.54%; Average animal paw volume [14]: 1.66 mL; Average animal paw volume percent change (%) [14]: 26.62%; Animal paw volume percent change (%) (Day 19, L paw, group 5 CIA + Compound A 1 mg/kg, 1 mg/kg): 55.17% and 87.60% and 49.82% and 69.06% and 22.47% and 52.08% and 53.58%; Animal paw volume percent change (%) (Day 19, L paw, group 6 CIA + Compound A 3 mg/kg, 3 mg/kg): 43.35% and 54.47% and 22.81% and 10.99% and 29.12%; Average animal paw volume [15]: 1.92 mL; Average animal paw volume percent change (%) [15]: 44.50%; Average animal paw volume [16]: 1.78 mL; Average animal paw volume percent change (%) [16]: 35.81%; Average animal paw volume [17]: 1.75 mL; Average animal paw volume percent change (%) [17]: 33.14%; Animal paw volume percent change (%) (Day 19, R paw, group 5 CIA + Compound A 1 mg/kg, 1 mg/kg): 68.20% and 87.26% and 33.45% and 54.34% and 17.71% and 54.75% and 35.85%; Animal paw volume percent change (%) (Day 19, R paw, group 6 CIA + Compound A 3 mg/kg, 3 mg/kg): 61.89% and 25.68% and 43.02% and 29.74% and 52.90%; Average detailed clinical score, left forelimb [18]: 1.13; Average detailed clinical score, left hind limb [18]: 4.00; Average detailed clinical score, right forelimb [18]: 1.00; Average detailed clinical score, right hind limb [18]: 3.75; Average detailed clinical score, score [18]: 9.88; Average overall clinical score [18]: 5; Overall Clinical Score (Day 19, CIA + Compound A 1 mg/kg, 1 mg/kg): 0 and 6 (5×) and 8 and 3; Average detailed clinical score, left forelimb [19]: 0.00; Average detailed clinical score, left hind limb [19]: 2.38; Average detailed clinical score, right forelimb [19]: 1.13; Average detailed clinical score, right hind limb [19]: 2.88; Average detailed clinical score, score [19]: 6.38; Average overall clinical score [19]: 4; Overall Clinical Score (Day 19, CIA + Compound A 3 mg/kg, 3 mg/kg): 5 and 4 (2×); Average overall clinical score (Day 19, CIA + Compound A 10 mg/kg): 4; Animal paw volume (Day 19, L paw, Group 5 (CIA + Compound A 1 mg/kg), 1 mg/kg): 2.03 mL (2×) and 2.42 mL and 2.24 mL and 1.64 mL and 2.02 mL and 2.04 mL; Animal paw volume (Day 19, L paw, Group 6 (CIA + Compound A 3 mg/kg), 3 mg/kg): 1.89 mL and 1.99 mL and 1.62 mL and 1.52 mL and 1.69 mL; Animal paw volume (Day 19, R paw, Group 5 (CIA + Compound A 1 mg/kg), 1 mg/kg): 2.20 mL and 2.43 mL and 1.84 mL and 2.05 mL and 1.60 mL and 2.04 mL and 1.80 mL; Animal paw volume (Day 19, R paw, Group 6 (CIA + Compound A 3 mg/kg), 3 mg/kg): 2.15 mL and 1.62 mL and 1.90 mL and 1.75 mL and 1.98 mL; Average animal paw volume [20]: 2.01 mL; Average animal paw volume percent change (%) [20]: 52.06%; Average animal paw volume [21]: 1.73 mL; Average animal paw volume percent change (%) [21]: 31.54%; Average animal paw volume [22]: 1.72 mL; Average animal paw volume percent change (%) [22]: 31.20%; Animal paw volume percent change (%) (Day 21, L paw, group 5 CIA + Compound A 1 mg/kg, 1 mg/kg): 56.70% and 89.53% and 53.14% and 70.94% and 22.47% and 56.60% and 61.89%; Animal paw volume percent change (%) (Day 21, L paw, group 6 CIA + Compound A 3 mg/kg, 3 mg/kg): 46.01% and 70.04% and 24.33% and 10.99% and 37.55%; Average animal paw volume [23]: 2.01 mL; Average animal paw volume percent change (%) [23]: 51.46%; Average animal paw volume (Day 21, R paw, group 6 CIA + Compound A 3 mg/kg): 1.82 mL
